Results: US4064252A, “Substituted N-(carboxymethyl)-3-aminopropan-2-ol derivatives” (Nippon Shinyaku Co., Ltd., priority 1975, dated 1977)
Where two headings read alike, the source gives them in different places.

Experiments:
[1] = system: serum triglyceride; assay: Blood lipid lowering in 8 week-old male rats having normal serum lipid content: serum triglyceride; type: in vivo, rat; settings: 3.5 days, vs non-treated control; for inhibition in vivo at 20 mg/kg/day / inhibition in vivo at 100 mg/kg/day / inhibition in vivo at 10 mg/kg/day: Rattus norvegicus, po, 84 h, read-out: % decrease of serum triglyceride; for inhibition in vivo at 10 mg/kg/day: 10 mg/kg/day oral
Procedure: (§1) 1. Blood lipid lowering activities in 8 week-old male rats having normal serum lipid content.
(§2) The values shown in Table 1 indicate the concentration changes of serum cholesterol and serum triglycride after the treatment with the shown various doses/day for 3.5 days. The mentioned compounds were orally administered to rat's groups consisting of 10 animals through a stomach tube twice a day. Blood was usually withdrawn 4 hours after the last administration. Serum cholesterol concentration was determined by the method of Levine and Zak, and triglyceride by the method of Kassler and Laderer by means of autoanalyzer. In all examples shown in Table 1, % decrease of treated groups are then to the non-treated reference group (control group), where the value of control group is represented as 100%.
(§3) The values in Table 5 indicate the concentration changes of serum cholesterol and the triglyceride after the treatment with the shown various doses per day for 3.5 days. These compounds were orally administered to rat groups consisting of 10 animals through a stomach tube twice a day. Blood was usually withdrawn 4 hours after the last administration. Serum cholesterol concentration was determined by the method of Levine and Zak, and serum triglyceride by the method of Kessler and Lederer by means of autoanalyzer. In all examples shown in Table 1, % decrease of the treated groups are to the non-treated control group where the value of control group is represented as 100%. […] The following examples are given to illustrate the representative embodiment of this invention, but this invention is not limited to these examples.

[2] = system: serum cholesterol; assay: Blood lipid lowering in 8 week-old male rats having normal serum lipid content: serum cholesterol; type: in vivo; settings: Rattus norvegicus, po, 84 h, 3.5 days, vs non-treated control, read-out: % decrease of serum cholesterol; for inhibition in vivo at 20 mg/kg/day: 20 mg/kg/day oral; for inhibition in vivo at 100 mg/kg/day: 100 mg/kg/day oral; for inhibition in vivo at 10 mg/kg/day: 10 mg/kg/day oral
Procedure: as §1, §2, §3

[3] = system: blood triglyceride; assay: Blood triglyceride lowering in carbohydrate (fructose) induced hypertriglyceridemia of fructose loaded 9 week-old male rats; type: in vivo, rat; settings: 3 days, vs fructose loaded control
Procedure: 2. Blood triglyceride lowering activities in the carbohydrate induced hypertriglyceridemia of fructose loaded 9 week-old rats.
Compounds shown in Table 2 were orally administered to the rat groups consisting of 10 animals for 3 days. Drinking of 10% fructose solution continued for 48 hours prior to sacrifice.
Fasting for 18 hours after the last administration, blood was withdrawn. In all examples shown in Table 2, % inhibitions of the treated groups are to the fructose loaded control group. The changed value of triglyoride content before and after the fructose load in the control group is represented as 100%.

[4] = system: blood cholesterol; assay: Blood cholesterol lowering in thiouracil induced hypercholesterolemia of thiouracil loaded 9 week-old male rats; type: in vivo, rat; settings: 4 days, vs thiouracil loaded control
Procedure: 3. Blood cholesterol lowering activities in the thiouracil induced hypercholesterolemia of thiouracil loaded 9 week-old male rats.
The compounds illustrated in Table 3 were orally administered for 4 days from the 4th day to rats given 0.1% thiouracil solution for 3 days as the pretreatment. Fasting for 18 hours after the last administration, blood was withdrawn. In all examples shown in Table 3, % inhibition of treated groups are to the thiouracil loaded control group, in which the changed value of cholesterol before and after the thiouracil load is represented as 100%.

`CCOC(=O)CN(CC(COc1ccc(Cl)cc1)OC(=O)c1cccnc1)c1ccccc1` (stereo not shown) [Compound 57] showed an inhibition in vivo at 20 mg/kg/day ([1]; Table 5, 20 mg/kg/day oral) of 54.5%, an inhibition in vivo at 100 mg/kg/day ([1]; Table 5, 100 mg/kg/day oral) of 59.3% and an inhibition in vivo at 20 mg/kg/day ([2]; Table 5) of 12.4%. It also gave an inhibition in vivo at 100 mg/kg/day ([2]; Table 5) of 14.9%.
`O=C(O)CN(CC(O)COc1ccc(Cl)cc1)c1ccccc1` (stereo not shown) [Compound 2] was tested, and the inhibition in vivo at 10 mg/kg/day ([1]; Table 1) was 53.6%, the “% decrease of serum triglyceride” value ([1]; Table 1, 20 mg/kg/day oral, 20 mg/kg/day) was 73.2% and the “% decrease of serum triglyceride” value ([1]; Table 1, 100 mg/kg/day oral, 100 mg/kg/day) was 72.0%. For the same compound, the inhibition in vivo at 10 mg/kg/day ([2]; Table 1) was 15.5%, the inhibition in vivo at 20 mg/kg/day ([2]; Table 1) was 28.8% and the inhibition in vivo at 100 mg/kg/day ([2]; Table 1) was 33.5%.
For `COC(=O)CN(CC(COc1ccc(Cl)cc1)OC(C)=O)c1ccccc1` (stereo not shown) [Compound 50, 2-acetoxy-1-(p-chlorophenoxy)-3-(N-carbomethoxymethyl-N-phenylamino) propane], the inhibition in vivo at 20 mg/kg/day ([1]; Table 5, 20 mg/kg/day oral) was 65.4%, the inhibition in vivo at 100 mg/kg/day ([1]; Table 5, 100 mg/kg/day oral) was 66% and the inhibition in vivo at 20 mg/kg/day ([2]; Table 5) was 21.5%. It also gave an inhibition in vivo at 100 mg/kg/day ([2]; Table 5) of 30.3%.
For `O=C(CN(CC(O)COc1ccc(Cl)cc1)c1ccccc1)NCc1ccccc1` (stereo not shown) [Compound 41], the inhibition in vivo at 100 mg/kg/day ([1]; Table 1, 100 mg/kg/day oral) was 53.2% and the inhibition in vivo at 100 mg/kg/day ([2]; Table 1) was 12.3%.
Compound `NC(=O)CN(CC(O)COc1ccc(Cl)cc1)c1ccccc1` (stereo not shown) [Compound 32] has an inhibition in vivo at 100 mg/kg/day ([1]; Table 1, 100 mg/kg/day oral) of 56.6% and an inhibition in vivo at 100 mg/kg/day ([2]; Table 1) of 29.6%.
For `CCOC(=O)C(C)(C)Oc1ccc(Cl)cc1` [clofibrate, reference compound], the “inhibition ratio (hypotriglyceridemic effect)” value ([3]; 10 mg/kg/day oral) was -16.6%, the “inhibition ratio (hypotriglyceridemic effect)” value ([3]; 30 mg/kg/day oral) was -2.3% and the “inhibition ratio (hypotriglyceridemic effect)” value ([3]; 100 mg/kg/day oral) was 23.2%. It also gave an inhibition in vivo at 10 mg/kg/day ([1]; Table 1) of 6.2%, an inhibition in vivo at 20 mg/kg/day ([1]; Table 1, 20 mg/kg/day oral) of 36.3% and an inhibition in vivo at 100 mg/kg/day ([1]; Table 1, 100 mg/kg/day oral) of 51.7%. For the same compound, the inhibition in vivo at 20 mg/kg/day ([1]; Table 5, 20 mg/kg/day oral) was 36.3%, the inhibition in vivo at 100 mg/kg/day ([1]; Table 5, 100 mg/kg/day oral) was 51.7% and the inhibition in vivo at 10 mg/kg/day ([2]; Table 1) was 5.8%. It also gave an inhibition in vivo at 20 mg/kg/day ([2]; Table 1) of 12.6%, an inhibition in vivo at 100 mg/kg/day ([2]; Table 1) of 37% and an inhibition in vivo at 20 mg/kg/day ([2]; Table 5) of 12.6%. For the same compound, the inhibition in vivo at 100 mg/kg/day ([2]; Table 5) was 37%.
With `CCCOC(=O)CN(CC(O)COc1ccc(Cl)cc1)c1ccccc1` (stereo not shown) [Compound 6] the “inhibition ratio (hypotriglyceridemic effect)” value ([3]; 10 mg/kg/day oral) was 55.9%, the “inhibition ratio (hypotriglyceridemic effect)” value ([3]; 30 mg/kg/day oral) was 67.6% and the “inhibition ratio (hypotriglyceridemic effect)” value ([3]; 100 mg/kg/day oral) was 85.7%. The “inhibition ratio (hypocholesterolemic effect)” value ([4]; 10 mg/kg/day oral) was 58.4%, the “inhibition ratio (hypocholesterolemic effect)” value ([4]; 30 mg/kg/day oral) was 70.1% and the “inhibition ratio (hypocholesterolemic effect)” value ([4]; 100 mg/kg/day oral) was 94.9%. It also gave an inhibition in vivo at 20 mg/kg/day ([1]; Table 1, 20 mg/kg/day oral) of 49.6%, an inhibition in vivo at 100 mg/kg/day ([1]; Table 1, 100 mg/kg/day oral) of 72.4% and an inhibition in vivo at 20 mg/kg/day ([2]; Table 1) of 34.7%. It also gave an inhibition in vivo at 100 mg/kg/day ([2]; Table 1) of 41.2%.
In the case of `COC(=O)CN(CC(O)COc1ccc(Cl)cc1)c1ccccc1` (stereo not shown) [Compound 4], the “inhibition ratio (hypotriglyceridemic effect)” value ([3]; 10 mg/kg/day oral) is reported as 46.5%, the “inhibition ratio (hypotriglyceridemic effect)” value ([3]; 30 mg/kg/day oral) is reported as 69.9% and the “inhibition ratio (hypotriglyceridemic effect)” value ([3]; 100 mg/kg/day oral) is reported as 93.0%. For the same compound, the “inhibition ratio (hypocholesterolemic effect)” value ([4]; 10 mg/kg/day oral) was 51.9%, the “inhibition ratio (hypocholesterolemic effect)” value ([4]; 30 mg/kg/day oral) was 57.9% and the “inhibition ratio (hypocholesterolemic effect)” value ([4]; 100 mg/kg/day oral) was 85.5%. For the same compound, the inhibition in vivo at 10 mg/kg/day ([1]; Table 1) was 36.5%, the inhibition in vivo at 20 mg/kg/day ([1]; Table 1, 20 mg/kg/day oral) was 54.4% and the inhibition in vivo at 100 mg/kg/day ([1]; Table 1, 100 mg/kg/day oral) was 59%. For the same compound, the inhibition in vivo at 10 mg/kg/day ([2]; Table 1) was 22.9%, the inhibition in vivo at 20 mg/kg/day ([2]; Table 1) was 23.4% and the inhibition in vivo at 100 mg/kg/day ([2]; Table 1) was 39.1%.
With `N[C@@H](Cc1cc(I)c(Oc2cc(I)c(O)c(I)c2)c(I)c1)C(=O)O` [L-thyroxine, reference compound] the “inhibition ratio (hypocholesterolemic effect)” value ([4]; 3 mg/kg/day oral) was 54.8%.
For `CCN(CC)C(=O)CN(CC(O)COc1ccc(Cl)cc1)c1ccccc1` (stereo not shown) [Compound 35], the inhibition in vivo at 100 mg/kg/day ([1]; Table 1, 100 mg/kg/day oral) was 52.7% and the inhibition in vivo at 100 mg/kg/day ([2]; Table 1) was 19.8%.
For `CCOC(=O)CN(CC(O)COc1ccc(Cl)cc1)c1ccccc1` (stereo not shown) [Compound 5], the “inhibition ratio (hypocholesterolemic effect)” value ([4]; 10 mg/kg/day oral) was 49.9%, the “inhibition ratio (hypocholesterolemic effect)” value ([4]; 30 mg/kg/day oral) was 69.2% and the “inhibition ratio (hypocholesterolemic effect)” value ([4]; 100 mg/kg/day oral) was 100.7%.
`COC(=O)CN(CC(O)COc1ccc(C(C)(C)C)cc1)c1ccccc1` (stereo not shown) [Compound 18] showed an inhibition in vivo at 20 mg/kg/day ([1]; Table 1, 20 mg/kg/day oral) of 54.5%, an inhibition in vivo at 100 mg/kg/day ([1]; Table 1, 100 mg/kg/day oral) of 59.3% and an inhibition in vivo at 20 mg/kg/day ([2]; Table 1) of 12.4%. It also gave an inhibition in vivo at 100 mg/kg/day ([2]; Table 1) of 14.9%.
In the case of `CCCCOC(=O)CN(CC(O)COc1ccc(Cl)cc1)c1ccccc1` (stereo not shown) [Compound 10], the “inhibition ratio (hypotriglyceridemic effect)” value ([3]; 10 mg/kg/day oral) is reported as 48.5%, the “inhibition ratio (hypotriglyceridemic effect)” value ([3]; 30 mg/kg/day oral) is reported as 61.5% and the “inhibition ratio (hypotriglyceridemic effect)” value ([3]; 100 mg/kg/day oral) is reported as 63.3%. The “inhibition ratio (hypocholesterolemic effect)” value ([4]; 10 mg/kg/day oral) was 52.6%, the “inhibition ratio (hypocholesterolemic effect)” value ([4]; 30 mg/kg/day oral) was 87.4% and the “inhibition ratio (hypocholesterolemic effect)” value ([4]; 100 mg/kg/day oral) was 94.9%.
`COC(=O)CN(CC(O)COc1ccccc1Cl)c1ccccc1` (stereo not shown) [Compound 11] was tested, and the inhibition in vivo at 20 mg/kg/day ([1]; Table 1, 20 mg/kg/day oral) was 65.4%, the inhibition in vivo at 100 mg/kg/day ([1]; Table 1, 100 mg/kg/day oral) was 66% and the inhibition in vivo at 20 mg/kg/day ([2]; Table 1) was 21.5%. For the same compound, the inhibition in vivo at 100 mg/kg/day ([2]; Table 1) was 30.3%.
